Measured values as given in PubChem BioAssay AID1845205 (Molecular Pharmacology Branch, DTP, NCI, 2023).

System: MPNST multicellular tumor spheroids, viability % test/control
Assay: Anticancer human tumor MPNST cell line growth inhibition;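 note: spheroids exposed to agents for seven days after three days of growth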;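 for viability, T/C: luminescence signal used as surrogate for viable cell amount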
Details: for IC50: curve of first compound; for viability, T/C: stronger effect = lower value
Procedure, shortened: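 Complex tumor spheroids combined malignant cells with endothelial cells and mesenchymal stem cells. DNA-damaging drugs and DNA repair inhibitors were tested alone and in combination, at half-log dilutions down from clinical Cmax (top 10 microM if Cmax unknown), 0.25% DMSO final.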

CC(C)n1c(=O)n(C)c2cnc3cc(F)c(-c4ccc(OCCCN5CCCCC5)nc4)cc3c21 + Cn1nnc2c(C(N)=O)ncn2c1=O
IC50 (second compound 1 µM): > 10 µM | IC50 (second compound 3.16 µM): > 10 µM | IC50 (second compound 10 µM): > 10 µM | IC50 (second compound 31.6 µM): > 10 µM | IC50 (second compound 100 µM): > 10 µM | viability, T/C (second compound 1 µM, first compound 0.0316 µM): 87.4% | viability, T/C (second compound 1 µM, first compound 0.1 µM): 83.7% | viability, T/C (second compound 1 µM, first compound 0.316 µM): 82.6% | viability, T/C (second compound 1 µM, first compound 1 µM): 77.9% | viability, T/C (second compound 1 µM, first compound 3.16 µM): 79.4% | viability, T/C (second compound 1 µM, first compound 10 µM): 61.9% | viability, T/C (second compound 3.16 µM, first compound 0.0316 µM): 84.6% | viability, T/C (second compound 3.16 µM, first compound 0.1 µM): 82.9% | viability, T/C (second compound 3.16 µM, first compound 0.316 µM): 92.5% | viability, T/C (second compound 3.16 µM, first compound 1 µM): 99% | viability, T/C (second compound 3.16 µM, first compound 3.16 µM): 84.9% | viability, T/C (second compound 3.16 µM, first compound 10 µM): 65.2% | viability, T/C (second compound 10 µM, first compound 0.0316 µM): 76.6% | viability, T/C (second compound 10 µM, first compound 0.1 µM): 92.4% | viability, T/C (second compound 10 µM, first compound 0.316 µM): 82.4% | viability, T/C (second compound 10 µM, first compound 1 µM): 74.8% | viability, T/C (second compound 10 µM, first compound 3.16 µM): 77.7% | viability, T/C (second compound 10 µM, first compound 10 µM): 72.1% | viability, T/C (second compound 31.6 µM, first compound 0.0316 µM): 88.2% | viability, T/C (second compound 31.6 µM, first compound 0.1 µM): 89% | viability, T/C (second compound 31.6 µM, first compound 0.316 µM): 68.6% | viability, T/C (second compound 31.6 µM, first compound 1 µM): 81.8% | viability, T/C (second compound 31.6 µM, first compound 3.16 µM): 83.7% | viability, T/C (second compound 31.6 µM, first compound 10 µM): 68.8% | viability, T/C (second compound 100 µM, first compound 0.0316 µM): 76.8% | viability, T/C (second compound 100 µM, first compound 0.1 µM): 71.8% | viability, T/C (second compound 100 µM, first compound 0.316 µM): 74.2% | viability, T/C (second compound 100 µM, first compound 1 µM): 71.2% | viability, T/C (second compound 100 µM, first compound 3.16 µM): 91% | viability, T/C (second compound 100 µM, first compound 10 µM): 67.2%
